# Values of other authors, collected in patent US20200383964A1, “MITOCHONDRIA TARGETING, MPTP REGULATION, AND THE REDUCTION OF MITOCHONDRIAL REACTIVE SPECIES” (priority 2017, published 2020).
# Tested on: mitochondrial permeability transition pore (MPTP)
smiles,measurement,setting,value
"CC(=O)C=O [Methylglyoxal, methylglyoxal]",suppression of permeability transition,"incubation with isolated mitochondria, covalent binding to the MPTP",complete suppression
same,time to suppression of the permeability transition,isolated mitochondria,≤ 5 min
